Earlier results on 1 compound are cited in patent publication US8946160B2, “Nitric oxide amino acid esters for improving vascular circulation, and prophylaxis or treatment of a condition associated with impaired blood circulation” (Oral Delivery Technology Ltd., priority 2010, dated 2015).

Turning to `O=[N+]([O-])OCC(CO[N+](=O)[O-])O[N+](=O)[O-]` [nitroglycerin], the “maximum shelf life of a product containing nitroglycerin” value is reported as “about six”.
